Laboratory results as given in patent US20100267561A1, “HERBICIDAL PYRIDAZINONE DERIVATIVES” (priority 2007, published 2010).

How the values were obtained:
Format in all cases: in vivo
[1] = system: common chickweed (Stellaria media); assay: Test E pre-/postemergence plant response; settings: 4 g ai/ha, Postemergence, scale 0 to 100
Method in brief: (§1)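 Steps: sow seeds; apply compound preemergence in a non-phytotoxic solvent/surfactant formulation; in parallel, spray the same formulation postemergence on 1- to 4-leaf plants (2–18 cm); hold 14–21 days in a greenhouse; rate visually vs controls, 0 = no effect, 100 = complete control.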

[2] = system: annual bluegrass (Poa annua); assay: Test E pre-/postemergence plant response; settings: scale 0 to 100
Method in brief: as §1

[3] = system: naked crabgrass (Digitaria nuda); assay: Test E pre-/postemergence plant response; settings: scale 0 to 100
Method in brief: as §1

[4] = system: common mallow (Malva sylvestris); assay: Test E pre-/postemergence plant response; settings: scale 0 to 100
Method in brief: as §1

[5] = system: barnyardgrass (Echinochloa crus-galli); assay: Test E pre-/postemergence plant response
Method in brief: as §1

[6] = system: dallisgrass (Paspalum dilatatum); assay: Test E pre-/postemergence plant response; settings: scale 0 to 100
Method in brief: as §1

[7] = system: green foxtail (Setaria viridis); assay: Test E pre-/postemergence plant response; settings: scale 0 to 100
Method in brief: as §1

[8] = system: broadleaf signalgrass (Brachiaria platyphylla); assay: Test E pre-/postemergence plant response; settings: scale 0 to 100
Method in brief: as §1

[9] = system: itchgrass (Rottboellia cochinchinensis); assay: Test E pre-/postemergence plant response; settings: scale 0 to 100
Method in brief: as §1

[10] = system: johnsongrass (Sorghum halepense); assay: Test E pre-/postemergence plant response; settings: scale 0 to 100
Method in brief: as §1

[11] = system: bermudagrass (Cynodon dactylon); assay: Test E pre-/postemergence plant response; settings: scale 0 to 100
Method in brief: as §1

[12] = system: spring barley (Hordeum vulgare); assay: Test C pre-/postemergence plant response
Method in brief: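 Both preemergence (to planted seed) and postemergence (to plants 2–18 cm high, 1- to 4-leaf) applications used test chemicals in a non-phytotoxic solvent mixture containing surfactant. Evaluation: visual comparison with controls after 15 to 25 days; 0 means no effect, 100 complete control.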

CCc1cc(-c2ccc(C(F)(F)F)cc2)nn1-c1c(OS(C)(=O)=O)cnn(C)c1=O [Compound 19]
90: Plant response rating, Crabgrass, Naked ([3]; Postemergence, 16 g ai/ha) | Plant response rating, Barnyardgrass ([5]; 4 g ai/ha, Postemergence, scale 0 to 100) | Plant response rating, Dallisgrass ([6]; 16 g ai/ha, Preemergence) | Plant response rating, Foxtail, Green ([7]; Postemergence, 8 g ai/ha) | Plant response rating, Johnsongrass ([10]; 4 g ai/ha, Postemergence) | Plant response rating, Johnsongrass ([10]; Postemergence, 8 g ai/ha) | Plant response rating, Barley, Spring ([12]; Postemergence, 16 g ai/ha, scale 0 to 100, 0 no effect, 100 complete control)
10: Plant response rating, Itchgrass ([9]; Preemergence, 4 g ai/ha)
60: Plant response rating, Dallisgrass ([6]; Postemergence, 16 g ai/ha) | Plant response rating, Bermudagrass ([11]; 8 g ai/ha, Preemergence)
20: Plant response rating, Dallisgrass ([6]; Preemergence, 4 g ai/ha) | Plant response rating, Foxtail, Green ([7]; 4 g ai/ha, Postemergence) | Plant response rating, Itchgrass ([9]; Postemergence, 8 g ai/ha) | Plant response rating, Barley, Spring ([12]; Postemergence, 8 g ai/ha, scale 0 to 100, 0 no effect, 100 complete control)
65: Plant response rating, Foxtail, Green ([7]; 16 g ai/ha, Preemergence) | Plant response rating, Signalgrass ([8]; 4 g ai/ha, Postemergence) | Plant response rating, Itchgrass ([9]; 16 g ai/ha, Preemergence) | Plant response rating, Barley, Spring ([12]; Preemergence, 16 g ai/ha, scale 0 to 100 (0 no effect, 100 complete control)) | Plant response rating, Barley, Spring ([12]; Preemergence, 31 g ai/ha, scale 0 to 100 (0 no effect, 100 complete control))
40: Plant response rating, Crabgrass, Naked ([3]; 4 g ai/ha, Postemergence) | Plant response rating, Dallisgrass ([6]; 8 g ai/ha, Preemergence) | Plant response rating, Foxtail, Green ([7]; 8 g ai/ha, Preemergence) | Plant response rating, Signalgrass ([8]; Preemergence, 4 g ai/ha)
70: Plant response rating, Itchgrass ([9]; Postemergence, 16 g ai/ha)
15: Plant response rating, Bermudagrass ([11]; 4 g ai/ha, Postemergence)
0: Plant response rating, Chickweed [1] | Plant response rating, Bluegrass ([2]; 4 g ai/ha, Postemergence) | Plant response rating, Bluegrass ([2]; 8 g ai/ha, Preemergence) | Plant response rating, Bluegrass ([2]; 16 g ai/ha, Preemergence) | Plant response rating, Bluegrass ([2]; 31 g ai/ha, Preemergence) | Plant response rating, Bluegrass ([2]; Postemergence, 8 g ai/ha) | Plant response rating, Bluegrass ([2]; Postemergence, 16 g ai/ha) | Plant response rating, Bluegrass ([2]; Postemergence, 31 g ai/ha) | Plant response rating, Bluegrass ([2]; Preemergence, 4 g ai/ha) | Plant response rating, Mallow ([4]; 4 g ai/ha, Postemergence) | Plant response rating, Mallow ([4]; 16 g ai/ha, Preemergence) | Plant response rating, Mallow ([4]; 31 g ai/ha, Preemergence) | Plant response rating, Mallow ([4]; Postemergence, 8 g ai/ha) | Plant response rating, Mallow ([4]; Postemergence, 16 g ai/ha) | Plant response rating, Mallow ([4]; Postemergence, 31 g ai/ha) | Plant response rating, Barnyardgrass ([5]; Preemergence, 4 g ai/ha, scale 0 to 100, 0 no effect, 100 complete control) | Plant response rating, Dallisgrass ([6]; 4 g ai/ha, Postemergence) | Plant response rating, Foxtail, Green ([7]; Preemergence, 4 g ai/ha) | Plant response rating, Itchgrass ([9]; 4 g ai/ha, Postemergence)
98: Plant response rating, Crabgrass, Naked ([3]; 8 g ai/ha, Preemergence) | Plant response rating, Crabgrass, Naked ([3]; 31 g ai/ha, Preemergence) | Plant response rating, Crabgrass, Naked ([3]; Postemergence, 31 g ai/ha) | Plant response rating, Barnyardgrass ([5]; Postemergence, 8 g ai/ha, scale 0 to 100) | Plant response rating, Signalgrass ([8]; Postemergence, 16 g ai/ha) | Plant response rating, Signalgrass ([8]; Postemergence, 31 g ai/ha) | Plant response rating, Johnsongrass ([10]; 31 g ai/ha, Preemergence)
50: Plant response rating, Barley, Spring ([12]; Preemergence, 8 g ai/ha, scale 0 to 100 (0 no effect, 100 complete control))
30: Plant response rating, Dallisgrass ([6]; Postemergence, 8 g ai/ha)
80: Plant response rating, Signalgrass ([8]; 16 g ai/ha, Preemergence) | Plant response rating, Signalgrass ([8]; 31 g ai/ha, Preemergence) | Plant response rating, Signalgrass ([8]; Postemergence, 8 g ai/ha) | Plant response rating, Itchgrass ([9]; 31 g ai/ha, Preemergence) | Plant response rating, Itchgrass ([9]; Postemergence, 31 g ai/ha) | Plant response rating, Bermudagrass ([11]; Postemergence, 31 g ai/ha) | Plant response rating, Barley, Spring ([12]; Preemergence, 62 g ai/ha, scale 0 to 100, 0 no effect, 100 complete control)
85: Plant response rating, Crabgrass, Naked ([3]; Postemergence, 8 g ai/ha)
75: Plant response rating, Barnyardgrass ([5]; 8 g ai/ha, Preemergence, scale 0 to 100) | Plant response rating, Dallisgrass ([6]; Postemergence, 31 g ai/ha) | Plant response rating, Johnsongrass ([10]; Preemergence, 4 g ai/ha)
95: Plant response rating, Barnyardgrass ([5]; 16 g ai/ha, Preemergence, scale 0 to 100) | Plant response rating, Dallisgrass ([6]; 31 g ai/ha, Preemergence) | Plant response rating, Foxtail, Green ([7]; Postemergence, 16 g ai/ha) | Plant response rating, Johnsongrass ([10]; 16 g ai/ha, Preemergence) | Plant response rating, Bermudagrass ([11]; 16 g ai/ha, Preemergence)
25: Plant response rating, Bermudagrass ([11]; Preemergence, 4 g ai/ha)
35: Plant response rating, Crabgrass, Naked ([3]; Preemergence, 4 g ai/ha) | Plant response rating, Bermudagrass ([11]; Postemergence, 8 g ai/ha) | Plant response rating, Bermudagrass ([11]; Postemergence, 16 g ai/ha)
100: Plant response rating, Barnyardgrass ([5]; 31 g ai/ha, Preemergence, scale 0 to 100) | Plant response rating, Barnyardgrass ([5]; Postemergence, 16 g ai/ha, scale 0 to 100) | Plant response rating, Barnyardgrass ([5]; Postemergence, 31 g ai/ha, scale 0 to 100) | Plant response rating, Foxtail, Green ([7]; 31 g ai/ha, Preemergence) | Plant response rating, Foxtail, Green ([7]; Postemergence, 31 g ai/ha) | Plant response rating, Johnsongrass ([10]; Postemergence, 16 g ai/ha) | Plant response rating, Johnsongrass ([10]; Postemergence, 31 g ai/ha) | Plant response rating, Bermudagrass ([11]; 31 g ai/ha, Preemergence) | Plant response rating, Barley, Spring ([12]; Postemergence, 31 g ai/ha, scale 0 to 100, 0 no effect, 100 complete control) | Plant response rating, Barley, Spring ([12]; Postemergence, 62 g ai/ha, scale 0 to 100, 0 no effect, 100 complete control)
